From ChEMBL document CHEMBL5505994, “Nur77 increases mitophagy and decreases aggregation of α-synuclein by modulating the p-c-Abl/p-PHB2 Y121 in α-synuclein PFF SH-SY5Y cells and mice” (Eur J Med Chem, 2024)
Activity calls are given as the source filed them.

Key:
Mus musculus [1] = species on record: Mus musculus; experiment: Neuroprotection activity in alpha-synuclein preformed fibril-induced C57BL/6J mouse PD model assessed as increase in LC3 level in brain at 1 uM treated after 3 month PPF challenge measured after 14 days by Western blot analysis; type: functional, organism-based; details: time 14.0 day
Mus musculus [2] = species on record: Mus musculus; experiment: Neuroprotection activity in alpha-synuclein preformed fibril-induced C57BL/6J mouse PD model assessed as decrease in phosphorylated […] level in brain at 1 uM treated after 3 month PPF challenge measured after 14 days by Western blot analysis; type: functional, organism-based; details: time 14.0 day
SH-SY5Y [3] = experiment: Agonist activity at Nur77-c-Abl-PHB2 pathway in alpha-synuclein preformed fibril-induced human SH-SY5Y cells assessed as decrease in p62 expression at 1 uM treated for 24 hrs by Western blot analysis; type: cell-based; details: filed as agonist
SH-SY5Y [4] = experiment: Agonist activity at Nur77-c-Abl-PHB2 pathway in alpha-synuclein preformed fibril-induced human SH-SY5Y cells assessed as translocation of Nur77 into mitochondria at 1 uM treated for 24 hrs by Western blot analysis; details: filed as agonist
SH-SY5Y [5] = experiment: Agonist activity at Nur77 in alpha-synuclein preformed fibril-induced human SH-SY5Y cells assessed as reduction in alpha-synuclein aggregation at 1 uM treated for 24 hrs by Western blot analysis; type: cell-based; details: filed as agonist
SH-SY5Y [6] = experiment: Agonist activity at Nur77-c-Abl-PHB2 pathway in alpha-synuclein preformed fibril-induced human SH-SY5Y cells assessed as interaction with c-Abl at 1 uM treated for 24 hrs by Co-immunoprecipitation (Co-IP) assay; type: cell-based; details: filed as agonist
SH-SY5Y [7] = experiment: Agonist activity at Nur77-c-Abl-PHB2 pathway in alpha-synuclein preformed fibril-induced human SH-SY5Y cells assessed as decrease in c-Abl phosphorylation at 1 uM treated for 24 hrs by Western blot analysis; type: cell-based; details: filed as agonist
Mus musculus [8] = species on record: Mus musculus; experiment: Neuroprotection activity in alpha-synuclein preformed fibril-induced C57BL/6J mouse PD model assessed as decrease in phosphorylated c-Abl level in brain at 1 uM treated after 3 month PPF challenge measured after 14 days by Western blot analysis; type: functional, organism-based; details: time 14.0 day
SH-SY5Y [9] = experiment: Agonist activity at Nur77-c-Abl-PHB2 pathway in alpha-synuclein preformed fibril-induced human SH-SY5Y cells assessed as increase in PHB2/LC3 interaction at 1 uM treated for 24 hrs by Co-immunoprecipitation (Co-IP) assay; type: cell-based; details: filed as agonist
SH-SY5Y [10] = experiment: Agonist activity at Nur77-c-Abl-PHB2 pathway in alpha-synuclein preformed fibril-induced human SH-SY5Y cells assessed as increase in ratio of LC3-II/LC3I at 1 uM treated for 24 hrs by Western blot analysis; type: cell-based; details: filed as agonist
SH-SY5Y [11] = experiment: Agonist activity at Nur77-c-Abl-PHB2 pathway in alpha-synuclein preformed fibril-induced human SH-SY5Y cells assessed as reduction in PHB2 phosphorylation at 1 uM treated for 24 hrs by Western blot analysis; type: cell-based; details: filed as agonist
Mus musculus [12] = species on record: Mus musculus; experiment: Neuroprotection activity in alpha-synuclein preformed fibril-induced C57BL/6J mouse PD model assessed as rescue of DA neurons in brain by measuring TH positive neurons at 1 uM treated after 3 month PPF challenge measured after 14 days by immunohistochemistry; type: functional, organism-based; details: time 14.0 day
Mus musculus [13] = species on record: Mus musculus; experiment: Neuroprotection activity in alpha-synuclein preformed fibril-induced C57BL/6J mouse PD model assessed as decrease in p62 expression in brain at 1 uM treated after 3 month PPF challenge measured after 14 days by Western blot analysis; type: functional, organism-based; details: time 14.0 day
Mus musculus [14] = species on record: Mus musculus; experiment: Neuroprotection activity in alpha-synuclein preformed fibril-induced C57BL/6J mouse PD model assessed as decrease in pS129-alpha-synuclein in SNpc TH positive neurons in brain at 1 uM treated after 3 month PPF challenge measured after 14 days by Western blot analysis; type: functional, organism-based; details: time 14.0 day

Measured: Activity

CCCCCCCC(=O)c1c(O)cc(O)cc1CC(=O)OCC
active: Mus musculus [1] | Mus musculus [2] | SH-SY5Y [3] | SH-SY5Y [4] | SH-SY5Y [5] | SH-SY5Y [6] | SH-SY5Y [7] | Mus musculus [8] | SH-SY5Y [9] | SH-SY5Y [10] | SH-SY5Y [11] | Mus musculus [12] | Mus musculus [13] | Mus musculus [14]
